Data published in patent US20260317324A1, “BIFUNCTIONAL COMPOUNDS FOR DEGRADING BRAF VIA UBIQUITIN PROTEOSOME PATHWAY” (Nurix Therapeutics, Inc., priority 2023, published 2026).

Biological target: T1, BRAF V600E (Homo sapiens, UniProt P15056, V600E)
T1 construct: endogenous C-terminal HiBiT fusion tag on BRAF V600E allele; endogenous in cells; host or cells: A375 clone 1F10 (CRISPR-Cas9 knock-in of the HiBiT tag; parental A375 from ATCC)
Assay: BRAF HiBiT degradation assay, C-terminal HiBiT-tagged BRAF V600E A375 cells (clone 1F10), Nano-Glo HiBiT Lytic assay
Type: cell-based
Conditions: for Dmax: A-375
Procedure, shortened: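 Luminescence from the Nano-Glo HiBiT lytic read-out gave % BRAF V600E remaining versus DMSO-treated tagged cells, with untagged A375 as background. Clone 1F10 cells (10,000/well, 24 h pre-culture) received compound at 1 μM–0.01 nM in half-log steps, 0.2% DMSO; curve fits gave DC50 at Y=50, plus observed Dmax.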

[1] = A375 (BRAF V600E), DC50 at 50%: fitted conc. at Y=50
[2] = A375 (BRAF V600E), percentage protein degraded at maximal compound effect relative to DMSO

T1 sequence (P15056 whole entry V600E, the tested form may be a part): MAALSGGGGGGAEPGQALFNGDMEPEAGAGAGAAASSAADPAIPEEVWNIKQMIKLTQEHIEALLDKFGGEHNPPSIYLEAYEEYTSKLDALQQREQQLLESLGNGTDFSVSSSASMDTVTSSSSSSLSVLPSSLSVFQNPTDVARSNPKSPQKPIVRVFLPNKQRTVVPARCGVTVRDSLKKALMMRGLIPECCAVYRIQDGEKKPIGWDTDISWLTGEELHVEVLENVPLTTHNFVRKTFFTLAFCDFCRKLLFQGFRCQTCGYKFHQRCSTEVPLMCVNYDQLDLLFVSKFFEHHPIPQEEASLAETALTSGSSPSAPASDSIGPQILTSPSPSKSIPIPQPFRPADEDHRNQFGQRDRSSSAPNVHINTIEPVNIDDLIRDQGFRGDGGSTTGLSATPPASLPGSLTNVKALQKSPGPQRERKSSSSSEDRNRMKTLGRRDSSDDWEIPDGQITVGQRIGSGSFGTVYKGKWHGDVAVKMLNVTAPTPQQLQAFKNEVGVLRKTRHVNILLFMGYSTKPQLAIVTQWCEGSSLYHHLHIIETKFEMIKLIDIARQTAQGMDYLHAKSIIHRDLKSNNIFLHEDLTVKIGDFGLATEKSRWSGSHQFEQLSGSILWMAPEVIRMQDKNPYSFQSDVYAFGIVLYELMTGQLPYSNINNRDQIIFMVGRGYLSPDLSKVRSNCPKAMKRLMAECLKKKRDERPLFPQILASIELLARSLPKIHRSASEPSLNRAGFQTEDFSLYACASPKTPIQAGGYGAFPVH

Row | SMILES | DC50 [1] [nM] | Dmax [2] [%] | DC50 (A375 (BRAF V600E, Class 1), DC50 at 50% degradation) [nM] | Dmax (A375 (BRAF V600E, Class 1), observed Dmax, % protein degraded relative to DMSO control) [%]
1 | CCCS(=O)(=O)Nc1cccc(-c2nc(C(C)(C)C)sc2-c2ccnc(Nc3ccc(C4CCN(C(=O)CCCCCc5ccc6c(c5)C(=O)N(C5CCC(=O)NC5=O)C6)CC4)cc3)n2)c1F (racemic) [Compound 151, Rac-N-(3-{2-tert-butyl-5-[2-({4-[1-(6-{2-[(3R)-2,6-dioxopiperidin-3-yl]-3-oxo-2,3-dihydro-1H-isoindol-5-yl}hexanoyl)piperidin-4-yl]phenyl}amino)pyrimidin-4-yl]-1,3-thiazol-4-yl}-2-fluorophenyl)propane-1-sulfonamide] | 10 to 50 | 30 to 70 | – | –
2 | CCCS(=O)(=O)Nc1cccc(-c2nc(C)sc2-c2ccnc(Nc3ccc(C4CCN(CC5CCN(c6ccc(C7CCC(=O)NC7=O)cn6)CC5)CC4)cc3)n2)c1F (racemic) [Compound 54, Rac-N-[3-(5-{2-[(4-{1-[(1-{5-[(3R)-2,6-dioxopiperidin-3-yl]pyridin-2-yl}piperidin-4-yl)methyl]piperidin-4-yl}phenyl)amino]pyrimidin-4-yl}-2-methyl-1,3-thiazol-4-yl)-2-fluorophenyl]propane-1-sulfonamide] | < 10 | > 70 | – | –
3 | O=C1CCC(c2ccc(N3CCC(CN4CCN(c5cnc(-n6cc(-c7cc(F)cc(NS(=O)(=O)N8CCCC8)c7F)c(-c7ccncc7)n6)nc5)CC4)CC3)nc2)C(=O)N1 (racemic) [Compound 343, Rac-N-{3-[1-(5-{4-[(1-{5-[(3R)-2,6-dioxopiperidin-3-yl]pyridin-2-yl}piperidin-4-yl)methyl]piperazin-1-yl}pyrimidin-2-yl)-3-(pyridin-4-yl)-1H-pyrazol-4-yl]-2,5-difluorophenyl}pyrrolidine-1-sulfonamide] | – | – | < 10 | > 70
4 | CCCS(=O)(=O)Nc1cccc(-c2nc(C(C)(C)C)sc2-c2ccnc(Nc3cccc(C4CCN(CC[C@H]5CCN(c6ccc(C7CCC(=O)NC7=O)cn6)C5)CC4)c3)n2)c1F (mixture of isomers) [Compound 74, N-{3-[2-tert-butyl-5-(2-{[3-(1-{2-[(3S)-1-{5-[(3RS)-2,6-dioxopiperidin-3-yl]pyridin-2-yl}pyrrolidin-3-yl]ethyl}piperidin-4-yl)phenyl]amino}pyrimidin-4-yl)-1,3-thiazol-4-yl]-2-fluorophenyl}propane-1-sulfonamide] | 10 to 50 | 30 to 70 | – | –
5 | CCCS(=O)(=O)Nc1cccc(-c2nc(C(C)(C)C)sc2-c2ccnc(NC3CC4(C3)CN(CC3CCN(C(=O)C5CCN(c6ccc(C7CCC(=O)NC7=O)cc6)CC5)CC3)C4)n2)c1F (racemic) [Compound 140, Rac-N-[3-(2-tert-butyl-5-{2-[(2-{[1-(1-{4-[(3R)-2,6-dioxopiperidin-3-yl]phenyl}piperidine-4-carbonyl)piperidin-4-yl]methyl}-2-azaspiro[3.3]heptan-6-yl)amino]pyrimidin-4-yl}-1,3-thiazol-4-yl)-2-fluorophenyl]propane-1-sulfonamide] | 10 to 50 | > 70 | – | –
6 | CCCS(=O)(=O)Nc1cccc(-c2nc(C3CCN(C(=O)C4CCN(C(=O)C5CCN(c6ccc(C7CCC(=O)NC7=O)cc6)CC5)CC4)CC3)sc2-c2ccncn2)c1F (racemic) [Compound 199, Rac-N-[3-(2-{1-[1-(1-{4-[(3R)-2,6-dioxopiperidin-3-yl]phenyl}piperidine-4-carbonyl)piperidine-4-carbonyl]piperidin-4-yl}-5-(pyrimidin-4-yl)-1,3-thiazol-4-yl)-2-fluorophenyl]propane-1-sulfonamide] | < 10 | > 70 | – | –
7 | CCCS(=O)(=O)Nc1cccc(-c2nc(C(C)(C)C)sc2-c2ccnc(NC3CC4(C3)CN(CC[C@H]3CCN(c5ccc(C6CCC(=O)NC6=O)cn5)C3)C4)n2)c1F (mixture of isomers) [Compound 172, N-[3-(2-tert-butyl-5-{2-[(2-{2-[(3S)-1-{5-[(3RS)-2,6-dioxopiperidin-3-yl]pyridin-2-yl}pyrrolidin-3-yl]ethyl}-2-azaspiro[3.3]heptan-6-yl)amino]pyrimidin-4-yl}-1,3-thiazol-4-yl)-2-fluorophenyl]propane-1-sulfonamide] | 50 to 500 | 30 to 70 | – | –
